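These data come from cells grown in 96-well plates and exposed to compound for 48 hours at five concentrations. GI50 = concentration required for 50% inhibition of growth. TGI denotes the concentration required for complete inhibition of growth.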
What was measured:
Assay in all cases: DTP human tumour cell line panel, 48 h
[1] = system: 786-0 renal
[2] = system: A498 renal
[3] = system: A549 NSCLC
[4] = system: ACHN renal
[5] = system: BT-549 breast
[6] = system: CAKI-1 renal
[7] = system: CCRF-CEM leukemia
[8] = system: COLO 205 colon
[9] = system: DU-145 prostate
[10] = system: EKVX NSCLC
[11] = system: HCC-2998 colon
[12] = system: HCT-116 colon
[13] = system: HCT-15 colon
[14] = system: HL-60(TB) leukemia
[15] = system: HOP-62 NSCLC
[16] = system: HOP-92 NSCLC
[17] = system: HS 578T breast
[18] = system: HT29 colon
[19] = system: IGROV1 ovarian
[20] = system: K-562 leukemia
[21] = system: KM12 colon
[22] = system: LOX IMVI melanoma
[23] = system: M14 melanoma
[24] = system: MALME-3M melanoma
[25] = system: MCF7 breast
[26] = system: MDA-MB-231 breast
[27] = system: MDA-MB-435
[28] = system: MOLT-4 leukemia
[29] = system: NCI-H226 lung
[30] = system: NCI-H460 lung
[31] = system: NCI-H522 lung
[32] = system: NCI/ADR-RES ovarian
[33] = system: OVCAR-3 ovarian
[34] = system: OVCAR-4 ovarian
[35] = system: OVCAR-5 ovarian
[36] = system: OVCAR-8 ovarian
[37] = system: PC-3 prostate
[38] = system: RPMI-8226 leukemia
[39] = system: RXF 393 renal
[40] = system: SF-268 CNS
[41] = system: SF-295 CNS
[42] = system: SF-539 CNS
[43] = system: SK-MEL-2 melanoma
[44] = system: SK-MEL-28 melanoma
[45] = system: SK-MEL-5 melanoma
[46] = system: SK-OV-3 ovarian
[47] = system: SN12C renal
[48] = system: SNB-19 CNS
[49] = system: SNB-75 CNS
[50] = system: SR leukemia
[51] = system: SW-620 colon
[52] = system: T-47D breast
[53] = system: TK-10 renal
[54] = system: U251 CNS
[55] = system: UACC-257 melanoma
[56] = system: UACC-62 melanoma
[57] = system: UO-31 renal

CCCC(=O)NC(c1cccnc1)c1cc(C(C)(C)C)c2cccnc2c1O (centres undefined)
GI50 [1]: 4.61 µM
TGI [1]: > 100 µM
GI50 [2]: > 100 µM
TGI [2]: > 100 µM
GI50 [3]: 5.68 µM
TGI [3]: > 100 µM
GI50 [4]: 3.62 µM
TGI [4]: > 100 µM
GI50 [5]: 5.06 µM
TGI [5]: > 100 µM
GI50 [6]: 3.19 µM
TGI [6]: > 100 µM
GI50 [7]: 2630 nM
TGI [7]: > 100 µM
GI50 [8]: 3.25 µM
TGI [8]: > 100 µM
GI50 [9]: 11.3 µM
TGI [9]: > 100 µM
GI50 [10]: 5.19 µM
TGI [10]: > 100 µM
GI50 [11]: 7.41 µM
TGI [11]: > 100 µM
GI50 [12]: 3.74 µM
TGI [12]: > 100 µM
GI50 [13]: 3.24 µM
TGI [13]: > 100 µM
GI50 [14]: 2860 nM
TGI [14]: 21.1 µM
GI50 [15]: 4.15 µM
TGI [15]: > 100 µM
GI50 [16]: 1530 nM
TGI [16]: 16.2 µM
GI50 [17]: 7.31 µM
TGI [17]: > 100 µM
GI50 [18]: 4.32 µM
TGI [18]: > 100 µM
GI50 [19]: 3.7 µM
TGI [19]: > 100 µM
GI50 [20]: 3.45 µM
TGI [20]: > 100 µM
GI50 [21]: 6.8 µM
TGI [21]: > 100 µM
GI50 [22]: 3.78 µM
TGI [22]: > 100 µM
GI50 [23]: 3.91 µM
TGI [23]: 44 µM
GI50 [24]: 10.6 µM
TGI [24]: > 100 µM
GI50 [25]: 2970 nM
TGI [25]: > 100 µM
GI50 [26]: 6.3 µM
TGI [26]: > 100 µM
GI50 [27]: 6.94 µM
TGI [27]: > 100 µM
GI50 [28]: 3.53 µM
TGI [28]: > 100 µM
GI50 [29]: 3.75 µM
TGI [29]: 83.1 µM
GI50 [30]: 3.89 µM
TGI [30]: > 100 µM
GI50 [31]: 2780 nM
TGI [31]: 20.4 µM
GI50 [32]: 2540 nM
TGI [32]: > 100 µM
GI50 [33]: 3.98 µM
TGI [33]: > 100 µM
GI50 [34]: 3.82 µM
TGI [34]: > 100 µM
GI50 [35]: 6.96 µM
TGI [35]: > 100 µM
GI50 [36]: 4 µM
TGI [36]: > 100 µM
GI50 [37]: 4.39 µM
TGI [37]: > 100 µM
GI50 [38]: 4.35 µM
TGI [38]: > 100 µM
GI50 [39]: 4.31 µM
TGI [39]: > 100 µM
GI50 [40]: 5.11 µM
TGI [40]: > 100 µM
GI50 [41]: 4.24 µM
TGI [41]: > 100 µM
GI50 [42]: 4.37 µM
TGI [42]: > 100 µM
GI50 [43]: 6.7 µM
TGI [43]: > 100 µM
GI50 [44]: 4.86 µM
TGI [44]: > 100 µM
GI50 [45]: 13.7 µM
TGI [45]: 48.4 µM
GI50 [46]: 3.46 µM
TGI [46]: 71.7 µM
GI50 [47]: 7.13 µM
TGI [47]: > 100 µM
GI50 [48]: 8.15 µM
TGI [48]: > 100 µM
GI50 [49]: 2510 nM
TGI [49]: 16.4 µM
GI50 [50]: 3.69 µM
TGI [50]: > 100 µM
GI50 [51]: 6.07 µM
TGI [51]: > 100 µM
GI50 [52]: 3.59 µM
TGI [52]: > 100 µM
GI50 [53]: 5.48 µM
TGI [53]: > 100 µM
GI50 [54]: 4.12 µM
TGI [54]: > 100 µM
GI50 [55]: 3.82 µM
TGI [55]: 66.4 µM
GI50 [56]: 3.24 µM
TGI [56]: 19.6 µM
GI50 [57]: 2220 nM
TGI [57]: > 100 µM

From PubChem BioAssay (NCI)
